Assay results reported in ChEMBL document CHEMBL5104192, “Late-Stage Functionalization with Cysteine Staples Generates Potent and Selective Melanocortin Receptor-1 Agonists” (J Med Chem, 2022).
pEC50, pKi: −log10 of the molar value. *1 amine or outer side, *2 acyl side, *3 side chain or, on linkers, in order; H or OH if unused. Where a SMILES comes first, the peptide text is derived from it. Bridges are numbered along the chain shown (N, C = ends). [ ]: non-standard residue; d: D form. X5 = O=C(O)CCOCCOCCOCCOCCNC(=O)OCC1C2CCc3c([*:1])nnc([*:2])c3CCC21; X2 = NCCOCCOCCNC(=O)OCC1C2CCc3c([*:1])nnc([*:2])c3CCC21; mXylylene = c1cc(C[*:1])cc(C[*:2])c1; pXylylene = c1cc(C[*:2])ccc1C[*:1]; NMeR = CN[C@@H](CCCNC(=N)N)C(=O)O; Nle = CCCC[C@H](N)C(=O)O

What was measured:
[1] = organism: Homo sapiens; test: Selectivity ratio of EC50 for human MC3R to EC50 for human MC1R
[2] = target: T1, Melanocortin receptor 4 (Homo sapiens, UniProt P32245); test: Displacement of [125I]-NDP-alpha-MSH from human MC4R expressed in HEK2936E cell membrane measured after 16 to 23 hrs by 1450 microbeta trilux scintillation proximity assay; format: cell membranes
[3] = organism: Homo sapiens; test: Selectivity ratio of EC50 for human MC4R to EC50 for human MC1R
[4] = target: T2, Melanocortin receptor 3 (Homo sapiens, UniProt P41968); test: Displacement of [125I]-NDP-alpha-MSH from human MC3R expressed in HEK2936E cell membrane measured after 16 to 23 hrs by 1450 microbeta trilux scintillation proximity assay; format: cell membranes
[5] = organism: Homo sapiens; test: Selectivity ratio of Ki for human MC4R to Ki for human MC1R
[6] = target: T3, Melanocyte-stimulating hormone receptor (Homo sapiens, UniProt Q01726); test: Agonist activity at human MC1R expressed in HEK2936E cells assessed as cAMP production in presence of IBMX by time resolved fluorescence assay; format: functional, cell-based; details: for EC50: read-out: pEC50 (converted)
[7] = target: T2, Melanocortin receptor 3; test: Agonist activity at human MC3R expressed in HEK2936E cells assessed as cAMP production in presence of IBMX by time resolved fluorescence assay; format: functional, cell-based
[8] = organism: Homo sapiens; test: Selectivity ratio of Ki for human MC3R to Ki for human MC1R
[9] = target: T1, Melanocortin receptor 4; test: Agonist activity at human MC4R expressed in HEK2936E cells assessed as cAMP production in presence of IBMX by time resolved fluorescence assay; format: functional, cell-based
[10] = target: T3, Melanocyte-stimulating hormone receptor; test: Displacement of [125I]-NDP-alpha-MSH from human MC1R expressed in HEK2936E cell membrane measured after 16 to 23 hrs by 1450 microbeta trilux scintillation proximity assay; format: cell membranes

T1 sequence (P32245 whole entry): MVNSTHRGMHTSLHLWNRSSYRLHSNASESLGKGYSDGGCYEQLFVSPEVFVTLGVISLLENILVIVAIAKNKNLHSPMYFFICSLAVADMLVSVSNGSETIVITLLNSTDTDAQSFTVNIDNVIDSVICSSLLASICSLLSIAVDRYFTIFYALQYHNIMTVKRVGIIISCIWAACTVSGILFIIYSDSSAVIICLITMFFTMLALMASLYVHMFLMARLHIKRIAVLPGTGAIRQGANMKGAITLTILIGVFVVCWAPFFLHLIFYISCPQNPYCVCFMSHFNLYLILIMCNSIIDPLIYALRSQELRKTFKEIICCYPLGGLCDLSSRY
T2 sequence (P41968 whole entry): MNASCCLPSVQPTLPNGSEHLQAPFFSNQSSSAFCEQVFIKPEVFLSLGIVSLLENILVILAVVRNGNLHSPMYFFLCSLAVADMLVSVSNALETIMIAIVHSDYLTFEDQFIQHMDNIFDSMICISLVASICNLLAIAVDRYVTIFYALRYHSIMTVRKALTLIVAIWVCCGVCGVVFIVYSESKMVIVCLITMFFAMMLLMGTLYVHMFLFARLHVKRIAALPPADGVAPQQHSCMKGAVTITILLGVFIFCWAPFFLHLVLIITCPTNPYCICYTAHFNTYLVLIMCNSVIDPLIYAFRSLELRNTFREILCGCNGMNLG
T3 sequence (Q01726 whole entry): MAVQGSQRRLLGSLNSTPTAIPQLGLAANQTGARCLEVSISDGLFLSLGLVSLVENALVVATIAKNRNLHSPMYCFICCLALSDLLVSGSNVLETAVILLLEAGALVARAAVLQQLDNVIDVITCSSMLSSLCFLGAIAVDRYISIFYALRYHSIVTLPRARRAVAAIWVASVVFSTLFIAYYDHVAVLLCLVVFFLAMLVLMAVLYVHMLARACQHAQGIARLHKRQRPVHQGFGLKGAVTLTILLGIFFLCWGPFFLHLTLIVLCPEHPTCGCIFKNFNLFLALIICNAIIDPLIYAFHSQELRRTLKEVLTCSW

CCCC[C@@H]1NC(=O)[C@@H]2CSc3nnc(c4c3CCC3C(CC4)C3COC(=O)NCCOCCOCCN)SC[C@H](NC(=O)[C@H](CCCNC(=N)N)NC(=O)[C@H](CC(=O)O)NC(=O)[C@H](Cc3c[nH]c4ccccc34)NC(=O)[C@H](CCCNC(=N)N)NC(=O)[C@H](Cc3ccccc3)NC(=O)[C@H](Cc3cnc[nH]3)NC(=O)CNC1=O)C(=O)N[C@@H](Cc1cnc[nH]1)C(=O)N[C@@H](Cc1ccccc1)C(=O)N[C@@H](CCCNC(=N)N)C(=O)N[C@@H](Cc1c[nH]c3ccccc13)C(=O)N[C@@H](CCCNC(=N)N)C(=O)N2 (stereo partly specified) (cyclo(CHFRWRC[Nle]GHFRWDR); linker 1-7 via X2)
Ratio EC50 [1]: 12 | pKi [2]: 7.70 | Ratio EC50 [3]: 123 | pKi [4]: 8.29 | Ratio Ki [5]: 347 | pEC50 ([6]; read-out: EC50): > 11.05 | EC50 [6]: < 0.00912 nM | pEC50 [7]: 9.97 | Ratio Ki [8]: 89 | pEC50 [9]: 8.95 | pKi [10]: 10.24

CCCC[C@@H]1NC(=O)[C@@H]2CSSC[C@H](NC(=O)[C@H](CCCNC(=N)N)NC(=O)[C@H](CC(=O)O)NC(=O)[C@H](Cc3c[nH]c4ccccc34)NC(=O)[C@H](CCCNC(=N)N)NC(=O)[C@H](Cc3ccccc3)NC(=O)[C@H](Cc3cnc[nH]3)NC(=O)CNC1=O)C(=O)N[C@@H](Cc1cnc[nH]1)C(=O)N[C@@H](Cc1ccccc1)C(=O)N[C@@H](CCCNC(=N)N)C(=O)N[C@@H](Cc1c[nH]c3ccccc13)C(=O)N[C@@H](CCCNC(=N)N)C(=O)N2 (cyclo(CHFRWRC[Nle]GHFRWDR); disulfide 1-7)
Ratio EC50 [1]: 1 | pKi [2]: 7.09 | Ratio EC50 [3]: 35 | pKi [4]: 7.68 | Ratio Ki [5]: 25 | EC50 [6]: 0.339 nM | pEC50 [7]: 9.64 | Ratio Ki [8]: 6 | pEC50 [9]: 8.09 | pKi [10]: 8.48

CCCC[C@@H]1NC(=O)[C@@H]2CSc3nnc(c4c3CCC3C(CC4)C3COC(=O)NCCOCCOCCOCCOCCC(=O)O)SC[C@H](NC(=O)[C@H](CCCNC(=N)N)NC(=O)[C@H](CC(=O)O)NC(=O)[C@H](Cc3c[nH]c4ccccc34)NC(=O)[C@H](CCCNC(=N)N)NC(=O)[C@H](Cc3ccccc3)NC(=O)[C@H](Cc3cnc[nH]3)NC(=O)CNC1=O)C(=O)N[C@@H](Cc1cnc[nH]1)C(=O)N[C@@H](Cc1ccccc1)C(=O)N[C@@H](CCCNC(=N)N)C(=O)N[C@@H](Cc1c[nH]c3ccccc13)C(=O)N[C@@H](CCCNC(=N)N)C(=O)N2 (stereo partly specified) (cyclo(CHFRWRC[Nle]GHFRWDR); linker 1-7 via X5)
Ratio EC50 [1]: 7 | pKi [2]: 6.78 | Ratio EC50 [3]: 117 | pKi [4]: 7.45 | Ratio Ki [5]: 263 | EC50 [6]: 0.0891 nM | pEC50 [7]: 9.22 | Ratio Ki [8]: 56 | pEC50 [9]: 7.98 | pKi [10]: 9.20

CC[C@H](C)[C@@H]1NC(=O)[C@@H]2CCCN2C(=O)[C@H](Cc2c[nH]c3ccccc23)NC(=O)[C@H](CCCNC(=N)N)N(C)C(=O)[C@H](Cc2ccccc2)NC(=O)[C@H](Cc2cnc[nH]2)NC(=O)[C@H]([C@@H](C)O)NC(=O)[C@@H](NC(C)=O)CSCc2cccc(c2)CSC[C@@H](C(N)=O)NC1=O (Ac-CTHF[NMeR]WPIC-NH2; linker 1-9 via mXylylene)
Ratio EC50 [1]: 66 | pKi [2]: 5.89 | Ratio EC50 [3]: 103 | pKi [4]: 5.04 | Ratio Ki [5]: 12 | EC50 [6]: 2.95 nM | pEC50 [7]: 6.71 | Ratio Ki [8]: 83 | pEC50 [9]: 6.52 | pKi [10]: 6.96

CC[C@H](C)[C@@H]1NC(=O)[C@@H]2CCCN2C(=O)[C@H](Cc2c[nH]c3ccccc23)NC(=O)[C@H](CCCNC(=N)N)N(C)C(=O)[C@H](Cc2ccccc2)NC(=O)[C@H](Cc2cnc[nH]2)NC(=O)[C@H]([C@@H](C)O)NC(=O)[C@@H](NC(C)=O)CSCc2ccc(cc2)CSC[C@@H](C(N)=O)NC1=O (Ac-CTHF[NMeR]WPIC-NH2; linker 1-9 via pXylylene)
Ratio EC50 [1]: 32 | pKi [2]: 6.12 | Ratio EC50 [3]: 60 | pKi [4]: 5.01 | Ratio Ki [5]: 7 | EC50 [6]: 5.13 nM | pEC50 [7]: 6.79 | Ratio Ki [8]: 87 | pEC50 [9]: 6.51 | pKi [10]: 6.95
